Test results reported in BindingDB's records for PubMed 12232544 (Emory University, 2002).
Where “and” joins values, the source holds several entries; their conditions need not be identical. Identical values can stand only once. Counter-ions that a name gives are not always drawn.

What was measured:
[1] = biological target: T1, 5-hydroxytryptamine receptor 2C (Sus scrofa, UniProt K7GSR7)
T1 sequence (K7GSR7 whole entry): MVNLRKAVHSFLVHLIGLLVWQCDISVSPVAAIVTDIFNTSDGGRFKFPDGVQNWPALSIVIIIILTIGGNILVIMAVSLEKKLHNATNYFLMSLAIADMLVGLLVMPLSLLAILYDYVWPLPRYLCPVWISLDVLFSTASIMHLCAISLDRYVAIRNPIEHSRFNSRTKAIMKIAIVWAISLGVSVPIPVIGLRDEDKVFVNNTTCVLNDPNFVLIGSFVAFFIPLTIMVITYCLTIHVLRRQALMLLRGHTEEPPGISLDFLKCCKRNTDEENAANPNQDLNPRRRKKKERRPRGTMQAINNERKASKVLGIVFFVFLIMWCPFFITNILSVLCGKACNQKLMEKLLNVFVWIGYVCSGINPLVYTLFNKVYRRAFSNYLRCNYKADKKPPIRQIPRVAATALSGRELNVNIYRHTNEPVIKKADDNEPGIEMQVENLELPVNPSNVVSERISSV

[2] = biological target: Histamine H1 receptor (Cavia porcellus, UniProt P31389)
[3] = biological target: T2, Alpha-1A adrenergic receptor (Homo sapiens, UniProt P35348)
T2 sequence (P35348 whole entry): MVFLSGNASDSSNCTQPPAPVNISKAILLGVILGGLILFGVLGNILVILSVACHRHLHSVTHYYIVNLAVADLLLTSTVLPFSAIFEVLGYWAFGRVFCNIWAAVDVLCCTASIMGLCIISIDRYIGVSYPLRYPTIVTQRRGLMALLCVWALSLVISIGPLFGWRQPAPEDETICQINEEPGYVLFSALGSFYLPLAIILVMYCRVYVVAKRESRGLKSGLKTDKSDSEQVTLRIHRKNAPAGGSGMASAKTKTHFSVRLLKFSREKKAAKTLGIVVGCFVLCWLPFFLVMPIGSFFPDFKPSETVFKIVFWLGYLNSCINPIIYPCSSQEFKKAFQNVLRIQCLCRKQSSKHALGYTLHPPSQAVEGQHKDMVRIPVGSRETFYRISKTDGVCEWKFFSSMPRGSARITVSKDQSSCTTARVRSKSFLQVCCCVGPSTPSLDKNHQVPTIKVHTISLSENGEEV

Chain of Histamine H1 receptor (P31389 whole entry): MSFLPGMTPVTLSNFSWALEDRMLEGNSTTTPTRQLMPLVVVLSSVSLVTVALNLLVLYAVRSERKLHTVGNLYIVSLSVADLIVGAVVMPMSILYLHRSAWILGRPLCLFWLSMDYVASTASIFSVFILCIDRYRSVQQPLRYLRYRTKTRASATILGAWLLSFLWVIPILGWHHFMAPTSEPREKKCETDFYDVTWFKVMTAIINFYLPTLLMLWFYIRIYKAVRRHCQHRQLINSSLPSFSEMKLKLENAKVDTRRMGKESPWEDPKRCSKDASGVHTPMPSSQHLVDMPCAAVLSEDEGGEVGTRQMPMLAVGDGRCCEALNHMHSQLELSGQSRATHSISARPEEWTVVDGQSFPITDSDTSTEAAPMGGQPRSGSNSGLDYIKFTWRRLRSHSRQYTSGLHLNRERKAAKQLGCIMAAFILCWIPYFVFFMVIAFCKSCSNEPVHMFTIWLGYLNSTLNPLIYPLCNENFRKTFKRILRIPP

COCCCC/C(=N\OCCN)c1ccc(C(F)(F)F)cc1 [(1E)-5-methoxy-1-[4-(trifluoromethyl)phenyl]pentan-1-one O-(2-aminoethyl)oxime]
Ki [1]: 5790 nM | Ki [2]: > 10000 nM

CN(C)CCCC1(c2ccc(F)cc2)OCc2cc(C#N)ccc21 (stereo not drawn) [CITALOPRAM HYDROBROMIDE]
Ki [1]: 2050 nM and 2530 nM | Ki [2]: 283 nM and 1970 nM

CNCC[C@@H](Oc1ccc(C(F)(F)F)cc1)c1ccccc1 [Fluoxetine-R-(-)]
Ki [2]: 812 nM

Fc1ccc([C@@H]2CCNC[C@H]2COc2ccc3c(c2)OCO3)cc1 [PAROXETINE]
Ki [1]: 9030 nM | Ki [2]: > 10000 nM

CNCC[C@@H](Oc1ccc(C(F)(F)F)cc1)c1ccccc1 [Prozac]
Ki [2]: 1550 nM

CN(C)CCC[C@]1(c2ccc(F)cc2)OCc2cc(C#N)ccc21 [R-citalopram]
Ki [1]: 1800 nM | Ki [2]: 181 nM

CN[C@@H]1CC[C@@H](c2ccc(Cl)c(Cl)c2)c2ccccc21 [[4-(3,4-Dichloro-phenyl)-1,2,3,4-tetrahydro-naphthalen-1-yl]-methyl-amine]
Ki [3]: 188 nM | Ki [1]: 2300 nM | Ki [2]: 6580 nM
